Test [1] in a line: DRUGMATRIX: Sodium/nucleoside co-transporter radioligand binding (ligand: nitrobenzylthioinosine). The test is classed as cell membranes, Cavia porcellus, Dunkin-Hartley, Cerebral cortex, Membrane. The following applies: Not Active = under 50% inhibition at 10 µM.
Test [2] deals with T1, B2 bradykinin receptor (Homo sapiens, UniProt P30411).
T1 sequence (P30411 whole entry): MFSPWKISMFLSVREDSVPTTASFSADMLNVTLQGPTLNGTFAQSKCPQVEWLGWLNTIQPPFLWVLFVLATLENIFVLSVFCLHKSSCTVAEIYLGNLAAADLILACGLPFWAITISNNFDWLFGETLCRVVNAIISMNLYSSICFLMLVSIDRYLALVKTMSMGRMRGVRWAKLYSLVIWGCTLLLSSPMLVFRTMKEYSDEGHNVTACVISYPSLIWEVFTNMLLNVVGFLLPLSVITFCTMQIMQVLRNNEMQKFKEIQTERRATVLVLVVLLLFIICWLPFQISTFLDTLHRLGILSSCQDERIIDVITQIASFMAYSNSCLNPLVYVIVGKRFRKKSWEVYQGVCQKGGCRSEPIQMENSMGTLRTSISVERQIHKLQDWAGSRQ
The test is classed as cell membranes, Membrane. The settings on record: chem-1.

Test [3] can be described thus: DRUGMATRIX: Calcium Channel Type L, Benzothiazepine radioligand binding (ligand: [3H] Diltiazem). The class given is cell membranes, Rattus norvegicus, Wistar, Brain, Membrane. The following applies: Not Active = under 50% inhibition at 10 µM.
Test [4] is described as follows: DRUGMATRIX: Serotonin (5-Hydroxytryptamine) 5-HT3 radioligand binding (ligand: [3H] GR-65630). The settings on record: hek293; Not Active = under 50% inhibition at 10 µM. The test is classed as cell membranes, Membrane.
Test [5] has as its target C-C chemokine receptor type 5 (Homo sapiens, UniProt P51681). The test is classed as cell membranes, Membrane. The following applies: hek293. Also: in other assays of this panel Not Active means under 50% inhibition at 10 µM.
The target of test [6] is Platelet-activating factor receptor (Homo sapiens, UniProt P25105). The class given is tissue-based. Also: in other assays of this panel Not Active means under 50% inhibition at 10 µM.
Platelet-activating factor receptor, sequence (P25105 whole entry): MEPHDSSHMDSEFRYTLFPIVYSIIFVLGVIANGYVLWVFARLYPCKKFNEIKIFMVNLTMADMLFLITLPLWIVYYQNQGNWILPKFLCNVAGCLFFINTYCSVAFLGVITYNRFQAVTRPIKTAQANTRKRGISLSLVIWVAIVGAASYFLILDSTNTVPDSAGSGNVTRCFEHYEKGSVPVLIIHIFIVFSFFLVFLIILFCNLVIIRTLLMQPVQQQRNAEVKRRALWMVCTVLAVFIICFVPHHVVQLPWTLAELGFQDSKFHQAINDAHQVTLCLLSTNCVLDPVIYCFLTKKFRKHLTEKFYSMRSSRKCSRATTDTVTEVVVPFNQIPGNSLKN
Test [7] concerns the target Protein kinase C alpha type (Homo sapiens, UniProt P17252). The test is classed as cell-based. The settings on record: sf9.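 Also: inhibition of PKCalpha kinase activity measured in an enzyme assay with histone as the phosphorylation substrate; in other assays of this panel Not Active means under 50% inhibition at 10 µM.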
Test [8] concerns the target T2, Receptor-type tyrosine-protein phosphatase C (Homo sapiens, UniProt P08575).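 Also: inhibition of CD45 enzyme activity measured using DiFMUP as substrate; in other assays of this panel Not Active means under 50% inhibition at 10 µM.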
T2 sequence (P08575 whole entry): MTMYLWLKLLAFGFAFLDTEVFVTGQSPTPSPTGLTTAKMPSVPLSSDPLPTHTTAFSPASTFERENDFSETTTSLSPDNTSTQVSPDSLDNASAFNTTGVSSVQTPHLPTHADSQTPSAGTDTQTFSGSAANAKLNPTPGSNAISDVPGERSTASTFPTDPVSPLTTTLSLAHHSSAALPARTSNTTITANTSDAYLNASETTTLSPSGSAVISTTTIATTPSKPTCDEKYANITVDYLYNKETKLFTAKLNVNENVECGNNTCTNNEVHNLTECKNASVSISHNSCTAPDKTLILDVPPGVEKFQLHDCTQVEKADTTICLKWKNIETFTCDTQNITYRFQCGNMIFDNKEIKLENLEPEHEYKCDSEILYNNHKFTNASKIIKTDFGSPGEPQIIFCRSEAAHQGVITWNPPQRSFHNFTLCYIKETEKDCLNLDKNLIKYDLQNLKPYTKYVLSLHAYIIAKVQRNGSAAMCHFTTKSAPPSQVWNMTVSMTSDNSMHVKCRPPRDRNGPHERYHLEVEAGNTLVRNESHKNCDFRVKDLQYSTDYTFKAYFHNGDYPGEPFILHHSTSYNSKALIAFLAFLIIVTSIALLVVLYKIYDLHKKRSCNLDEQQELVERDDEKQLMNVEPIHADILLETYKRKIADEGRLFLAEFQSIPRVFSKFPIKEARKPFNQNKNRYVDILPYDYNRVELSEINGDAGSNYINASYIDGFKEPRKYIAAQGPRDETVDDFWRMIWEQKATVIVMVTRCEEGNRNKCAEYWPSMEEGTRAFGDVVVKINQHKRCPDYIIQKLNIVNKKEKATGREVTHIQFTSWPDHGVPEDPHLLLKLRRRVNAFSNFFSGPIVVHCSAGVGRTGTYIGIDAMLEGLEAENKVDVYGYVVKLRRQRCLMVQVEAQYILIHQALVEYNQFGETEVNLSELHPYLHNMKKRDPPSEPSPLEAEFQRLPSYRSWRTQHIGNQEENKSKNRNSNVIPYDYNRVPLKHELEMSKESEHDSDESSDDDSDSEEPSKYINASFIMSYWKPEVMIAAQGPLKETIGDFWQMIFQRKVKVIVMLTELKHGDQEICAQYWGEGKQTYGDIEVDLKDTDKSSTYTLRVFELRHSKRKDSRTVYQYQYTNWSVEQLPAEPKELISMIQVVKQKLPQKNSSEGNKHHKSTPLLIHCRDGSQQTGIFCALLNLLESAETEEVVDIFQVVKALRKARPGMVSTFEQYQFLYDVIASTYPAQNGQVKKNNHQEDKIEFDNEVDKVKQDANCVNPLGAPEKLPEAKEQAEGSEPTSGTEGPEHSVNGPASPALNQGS
Also on record: species or system Escherichia coli.

This is an account of results in ChEMBL document CHEMBL1909046, “DrugMatrix in vitro pharmacology data”.

C-C chemokine receptor type 5, sequence (P51681 whole entry): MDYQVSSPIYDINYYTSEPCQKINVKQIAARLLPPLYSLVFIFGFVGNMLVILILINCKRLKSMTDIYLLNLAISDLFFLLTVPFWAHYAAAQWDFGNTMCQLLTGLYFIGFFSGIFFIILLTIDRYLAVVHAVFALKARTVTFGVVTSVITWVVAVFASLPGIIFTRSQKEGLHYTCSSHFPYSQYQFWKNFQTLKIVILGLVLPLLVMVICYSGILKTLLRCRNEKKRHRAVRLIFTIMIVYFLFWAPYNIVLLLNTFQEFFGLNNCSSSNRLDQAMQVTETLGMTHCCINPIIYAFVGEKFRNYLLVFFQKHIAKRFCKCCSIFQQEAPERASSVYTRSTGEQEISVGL

`CCCOc1ccccc1-c1nc2nn[nH]c2c(=O)[nH]1` [ZAPRINAST]: the IC50 result in test [1], in test [2], in test [3], in test [4], in test [5] and in test [6] was “Not Active” in each case. Besides, the IC50 result in test [7] and in test [8] was “Not Active” in each case. Besides, the Ki result in test [1], in test [3] and in test [4] was “Not Active” each time.

With `Nc1nc2nc[nH]c2c(=S)[nH]1` [THIOGUANINE], the IC50 entry in test [1], in test [2], in test [3], in test [4], in test [5] and in test [6] was “Not Active” throughout. For the same molecule, the IC50 result in test [7] and in test [8] was “Not Active” each time. Besides, the Ki result in test [1], in test [3] and in test [4] was “Not Active” each time.

As for `Cc1c(C)c2c(c(C)c1O)CCC(C)(COc1ccc(CC3SC(=O)NC3=O)cc1)O2` (stereo not drawn) [TROGLITAZONE], the IC50 entry in test [1], in test [2], in test [3], in test [4], in test [5] and in test [6] was “Not Active” in each case. Further, the IC50 entry in test [7] and in test [8] was “Not Active” in each case. The Ki entry in test [1], in test [3] and in test [4] was “Not Active” each time.

For `COc1nc(C)nc(Cl)c1NC1=NCCN1` [MOXONIDINE], the IC50 entry in test [1], in test [2], in test [3], in test [4], in test [5] and in test [6] was “Not Active” each time. The IC50 result in test [7] and in test [8] was “Not Active” throughout. In addition, the Ki entry in test [1], in test [3] and in test [4] was “Not Active” each time.

Consider `OCCN(CCO)c1nc(N2CCCCC2)c2nc(N(CCO)CCO)nc(N3CCCCC3)c2n1` [DIPYRIDAMOLE], for which the IC50 is 83 nM in test [1] (read-out: IC50); “Not Active” in test [2]; “Not Active” in test [3]; “Not Active” in test [4]; “Not Active” in test [5]; “Not Active” in test [6]. In addition, the IC50 entry in test [7] and in test [8] was “Not Active” in each case. Also, the Ki in test [1] (read-out: Ki) was 29 nM; in test [3], “Not Active”; in test [4] it was “Not Active”.

For the molecule `O=NN(CCCl)C(=O)NC1CCCCC1` [LOMUSTINE], the IC50 result in test [1], in test [2], in test [3], in test [4], in test [5] and in test [6] was “Not Active” each time. The IC50 result in test [7] and in test [8] was “Not Active” throughout. In addition, the Ki entry in test [1], in test [3] and in test [4] was “Not Active” in each case.

Take `O=c1ncn2nc(Sc3ccc(F)cc3F)ccc2c1-c1c(Cl)cccc1Cl` [NEFLAMAPIMOD]: the IC50 result in test [1], in test [2], in test [3], in test [4], in test [5] and in test [6] was “Not Active” in each case. Also, the IC50 result in test [7] and in test [8] was “Not Active” throughout. Further, the Ki entry in test [1], in test [3] and in test [4] was “Not Active” throughout.

As to `CC[C@]1(O)C[C@H]2CN(CCc3c([nH]c4ccccc34)[C@@](C(=O)OC)(c3cc4c(cc3OC)N(C=O)[C@H]3[C@@](O)(C(=O)OC)[C@H](OC(C)=O)[C@]5(CC)C=CCN6CC[C@]43[C@@H]65)C2)C1` [VINCRISTINE], the IC50 result in test [1], in test [2], in test [3], in test [4], in test [5] and in test [6] was “Not Active” in each case. The IC50 result in test [7] and in test [8] was “Not Active” throughout. In addition, the Ki entry in test [1], in test [3] and in test [4] was “Not Active” throughout.

On to `CSc1ccc(/C=C2/C(C)=C(CC(=O)O)c3cc(F)ccc32)cc1` [SULINDAC SULFIDE], for which the IC50 result in test [1], in test [2], in test [3], in test [4], in test [5] and in test [6] was “Not Active” each time. The IC50 entry in test [7] and in test [8] was “Not Active” each time. Also, the Ki entry in test [1], in test [3] and in test [4] was “Not Active” throughout.

For the molecule `CC(=O)[C@@]1(O)CC[C@H]2[C@@H]3C[C@H](C)C4=CC(=O)CC[C@]4(C)[C@H]3CC[C@@]21C`, the IC50 entry in test [1], in test [2], in test [3], in test [4], in test [5] and in test [6] was “Not Active” each time. Further, the IC50 result in test [7] and in test [8] was “Not Active” each time. Besides, the Ki result in test [1], in test [3] and in test [4] was “Not Active” in each case.

Take `Cc1noc(NS(=O)(=O)c2ccc(N)cc2)c1C` [SULFISOXAZOLE]: the IC50 result in test [1], in test [2], in test [3], in test [4], in test [5] and in test [6] was “Not Active” in each case. For the same molecule, the IC50 result in test [7] and in test [8] was “Not Active” each time. Besides, the Ki result in test [1], in test [3] and in test [4] was “Not Active” in each case.

For the molecule `N[C@@H](Cc1ccc(O)c(O)c1)C(=O)O` [LEVODOPA], the IC50 entry in test [1], in test [2], in test [3], in test [4], in test [5] and in test [6] was “Not Active” in each case. Also, the IC50 entry in test [7] and in test [8] was “Not Active” in each case. Also, the Ki result in test [1], in test [3] and in test [4] was “Not Active” each time.

Take `NS(=O)(=O)c1cc2c(cc1Cl)NC(C(Cl)Cl)NS2(=O)=O` (stereo not drawn) [TRICHLORMETHIAZIDE]: the IC50 entry in test [1], in test [2], in test [3], in test [4], in test [5] and in test [6] was “Not Active” each time. For the same molecule, the IC50 entry in test [7] and in test [8] was “Not Active” throughout. Moreover, the Ki result in test [1], in test [3] and in test [4] was “Not Active” each time.
